Entries after “also recorded” stand apart in the source; their conditions may differ. Where two headings read alike, the source gives them in different places. *1 amine or outer side, *2 acyl side, *3 side chain or, on linkers, in order; H or OH if unused. Where a SMILES comes first, the peptide text is derived from it. Bridges are numbered along the chain shown (N, C = ends). Roman numbers before positions name the chains, in order. [ ]: non-standard residue; d: D form. Actinocin(9to1) = Cc1c2oc3c(C)ccc(C(=O)[*:1])c3nc-2c(C(=O)[*:2])c(N)c1=O; NMeV = CN[C@H](C(=O)O)C(C)C; Sar = CNCC(=O)O
How the values were obtained:
aSynL:total ratio [1] = test: In vivo I-Dopa treatment of DAT-Cre/Dicer mice, aSynL:total ratio in brain tissue by RT-qPCR; set-up: species or system mouse
Description: (§1) 2-month old DAT-Cre/Dicer^flox/flox and DAT-Cre/Dicer^flox/+24 or forty-weeks old male PAC-Tg (SNCA)+/−;Snca+/− (a gift from Dr. Robert L. Nussbaum, University of California San Francisco, ^25) received 20 mg/kg I-Dopa with 12 mg/kg benserazide (or PBS vehicle only) by intraperitoneal injection daily for 5 days. […] 1 hour after the last dose, mice were anesthetized by inhaled isoflurane and the brains rapidly removed. The prefrontal cortex, striatum and midbrain were dissected out and stored at −80° C.
(§2) RT-qPCR analyses were performed as described ^60.

human aSyn protein = test: In vivo I-Dopa treatment of aSyn PAC transgenic mice, aSyn protein in brain tissue by ELISA; set-up: species or system mouse; settings: 20 mg/kg i.p. daily for 5 days
Description: (§3) Mitochondria were purified using Qproteome Mitochondria Isolation Kit (Qiagen) and membrane fractions were isolated using Subcellular Protein Fractionation Kit (Pierce) following manufacturers' instructions. Human aSyn protein levels were determined using the aSyn Human ELISA kit (Invitrogen). Absorbance was read on a VersaMax ELISA Microplate Reader (Molecular Devices, Inc) at 450 nm. The amount of human aSyn was normalized to total cellular protein as determined with the DC Protein Assay Reagent kit (Bio-Rad). Mitochondrial preparations were validated by Western blot analysis for Tom20 and synaptophysin (see FIG. 12d).
as §1

aSynL:total ratio [2] = test: aSynL:total ratio by RT-qPCR in rat primary cortical cultures; type: cell-based
Description: (§4) Cultures of rodent neurons were prepared as described in ^53. Cells were maintained in vitro for 3-5 days before drug treatments or transfection using Lipofectamine 2000 (Iinvitrogen) following manufacturer's instructions.
RT-qPCR analyses were performed as described ^60. The human aSynL:Total mRNA ratio was quantified in terms of AACt ^60 using primer pair Lh for the human long form (HaSynLfw [[…]] SEQ ID NO: 13, and HaSynLry [[…]]) SEQ ID NO: 14 and primer pair Th for human total (HaSynTfw [[…]] SEQ ID NO: 15 and HaSynTrv [[…]] SEQ ID NO: 16). For analysis of either mouse or rat, primer pairs mrL (RaSynLfw [[…]] SEQ ID NO: 17 and RaSynLrv [[…]] SEQ ID NO: 18) and mrT (RaSynTfw [[…]] SEQ ID NO: 19, RaSynTry [[…]] SEQ ID NO: 20) were used.

aSynL:total ratio [3] = test: aSynL:total ratio in total RNA of SH-SY5Y cells by RT-qPCR (transcription inhibition); type: cell-based, human
aSynL:total ratio [4] = test system: aSynL:total ratio
Description: Total RNA was isolated using a miRNeasy kit (Qiagen) and nascent RNA was purified using the Click-iT® Nascent RNA Capture Kit (Invitrogen) following manufacturer's instructions; total and nascent RNA were then subjected to RT-qPCR analysis as below.
as §2

aSynL:total ratio [5] = test: In situ hybridization for aSyn CDS and long 3′UTR in primary cortical neuron cultures from aSyn PAC transgenic mice; type: cell-based; settings: 100 μM for 24 h, DIV 4 PAC mouse cortical neurons
Description: as §4
In situ hybridization were performed using QuantiGene® ViewRNA ISH Cell Assay (Panomics) following manufacturer's instructions, with QG ViewRNA TYPE 8 Probe Sets (Panomics) designed to target either human aSyn CDS sequences (bases 264-634 from NM_000345.3; Panomics) or to target human aSynL 3′UTR sequences (bases 1180-1760 from NM_000345.3).

aSyn protein [6] = test: Total endogenous aSyn protein by ELISA in SH-SY5Y cells; type: cell-based, human; settings: 100 μM for 48 h
Description: as §3

human aSyn 3′UTR = test: Firefly luciferase-aSyn 3′UTR reporter assay in SH-SY5Y cells; type: cell-based; settings: for dopamine-mediated increase in luciferase accumulation under VMAT2 overexpression: SH-SY5Y co-transfected with VMAT2 vector; for luciferase expression, Firefly/Renilla ratio, short aSyn 3′UTR vector: 100 μM for 24 hrs
Description: The human SH-SY5Y neuroblastoma cell line (ATCC) was cultured following the distributor's instructions. Cells were plated at a density of 4×10^5 cells per well (in 48-well plates) in wells coated with 0.1% gelatin (Specialty Media, Millipore) 24 hours prior to transfection. Transfections were performed with Lipofectamine 2000 reagent (Invitrogen) following the manufacturer's instructions. The human HEK-293T cell line (ATCC) was cultured in DMEM (Invitrogen) supplemented with 10% FBS (Invitrogen). Cells were plated at a density of 8×10^3 cells per well (96-well plates). Mir-34b-3p precursor, specific Anti-miR Mir-34b-3p inhibitor, Anti-miR Negative Control #1, and Pre-miR Negative Control #1 were purchased from Ambion. Cells were co-transfected with luciferase reporter plasmids and a small RNA or inhibitor (as indicated) using siPort NeoFx reagent (Ambion) following manufacturer's protocol. Luciferase and Renilla activities were measured 24 h or 48 h after transfection using Dual-Glo luciferase assay system (Promega).

aSyn translation = test: Endogenous aSyn protein by ELISA normalized to total aSyn mRNA in SH-SY5Y cells (aSyn translation); type: cell-based, human; settings: dopamine 100 uM for 24 h
Excerpt: Mitochondria were purified using Qproteome Mitochondria Isolation Kit (Qiagen) and membrane fractions were isolated using Subcellular Protein Fractionation Kit (Pierce) following manufacturers' instructions. […] Absorbance was read on a VersaMax ELISA Microplate Reader (Molecular Devices, Inc) at 450 nm. The amount of human aSyn was normalized to total cellular protein as determined with the DC Protein Assay Reagent kit (Bio-Rad). Mitochondrial preparations were validated by Western blot analysis for Tom20 and synaptophysin (see FIG. 12d). RT-qPCR analyses were performed as described ^60. […] NO: 17 and […] NO: 18) […] NO: 19, […] NO: 20) were used. The human SH-SY5Y neuroblastoma cell line (ATCC) was cultured following the distributor's instructions. Cells were plated at a density of 4×10^5 cells per well (in 48-well plates) in wells coated with 0.1% gelatin (Specialty Media, Millipore) 24 hours prior to transfection. Transfections were performed with Lipofectamine 2000 reagent (Invitrogen) following the manufacturer's instructions. The human HEK-293T cell line (ATCC) was cultured in DMEM (Invitrogen) supplemented with 10% FBS (Invitrogen). Cells were plated at a density of 8×10^3 cells per well (96-well plates). […] Luciferase and Renilla activities were measured 24 h or 48 h after transfection using Dual-Glo luciferase assay system (Promega).

aSyn protein [7] = test: aSyn protein by ELISA in mitochondrial and membrane fractions of SH-SY5Y cells; type: cell-based, human; settings: 100 μM for 48 h
Description: as §3

aSyn protein [8] = test: Colocalization of aSyn and Mitotracker in primary cortical neuron cultures from PAC transgenic mice; type: cell-based; settings: primary mouse cortical neurons, 100 μM for 24 h
Description: as §4
Immunostainings were done as previously described ^59 with Rabbit anti-aSyn (Santa Cruz, 1:200) or Mouse anti-Synaptophysin (Millipore, 1:100) as primary antibodies, and Alexa 555 goat anti-rabbit IgG or Alexa 633 goat anti-mouse IgG (Invitrogen) secondary antibodies. MitoTracker-Orange (Invitrogen, 1:10000) was added into media for 15-20 min in living cell culture. Collocalization analyses were done in R using EBImage package; using Pearson's correlation coefficient.

aSynL:total ratio [9] = settings: GFP-aSyn wild-type 1.1 kb 3′UTR plasmid, lysed after 48 h
Description: Northern Blots were performed using the NorthernMax kit (Ambion) following manufacturer's instructions. 10 μg of total RNA was purified using miRNeasy kit (Qiagen) and loaded per lane.

[10] = rat primary cortical neurons, RT-qPCR, dopamine, picrotoxin, muscimol, NMDA 100 μM, kainic acid 50 μM, vs vehicle

N[C@@H](Cc1ccc(O)c(O)c1)C(=O)O [I-Dopa]
aSynL:total ratio in midbrain tissue (aSynL:total ratio [1]; 2 month-old control DAT-Cre/Dicer flox/+ mice, 20 mg/kg i.p. daily for 5 days with 12 mg/kg benserazide): significantly increased
aSynL:total ratio in midbrain tissue (aSynL:total ratio [1]; DAT-Cre/Dicer flox/flox mice deficient in mDNs, 20 mg/kg i.p. daily for 5 days): did not alter
aSynL:total ratio in brain regions other than midbrain (aSynL:total ratio [1]; such as striatal tissue, 20 mg/kg i.p. daily for 5 days): not apparent
human aSyn protein in midbrain (ELISA, normalized to total protein) (human aSyn protein): significantly increased
human aSyn protein in other brain regions such as striatum or cortex (human aSyn protein): not

CN[C@H](CC(=O)O)C(=O)O [NMDA]
aSynL:total ratio (aSynL:total ratio [2]; [10]): did not appear to impact

Cc1c2oc3c(C)ccc(C(=O)N[C@@H]4C(=O)N[C@H](C(C)C)C(=O)N5CCC[C@H]5C(=O)N(C)CC(=O)N(C)[C@@H](C(C)C)C(=O)O[C@@H]4C)c3nc-2c(C(=O)N[C@@H]2C(=O)N[C@H](C(C)C)C(=O)N3CCC[C@H]3C(=O)N(C)CC(=O)N(C)[C@@H](C(C)C)C(=O)O[C@@H]2C)c(N)c1=O [actinomycin D] (I: T[dV]P[Sar][NMeV] / II: T[dV]P[Sar][NMeV]; ester I:1-I:C, II:1-II:C; linker I:N-II:N via Actinocin(9to1))
dopamine-mediated increase in aSynL:total ratio (aSynL:total ratio [3]; actinomycin D 10 μg/mL with dopamine 100 μM, total RNA, 12 or 24 h): prevented the increase

NCCc1ccc(O)c(O)c1 [dopamine]
aSynL:total ratio (aSynL:total ratio [2]; dopamine 10 μM for 24 hrs, cells transfected with vector encoding DAT): significantly increased the sensitivity
aSynL:total ratio (aSynL:total ratio [2]; low extracellular dopamine 10 μM for 24 h, no DAT overexpression): resistant
aSynL:total ratio (aSynL:total ratio [2]; [10]): increase; also recorded: significantly increased
aSynL:total ratio among the labeled RNA population (aSynL:total ratio [4]; 100 μM dopamine exclusively during the pulse-labeling period): robust and durable increase
aSynL:total ratio among the labeled RNA population (aSynL:total ratio [4]; 100 μM dopamine exclusively post-labeling (chase)): did not produce any effect
treatment time after which the increase of the aSynL:total ratio is detectable in the nascent RNA population (aSynL:total ratio [4]; SH-SY5Y, dopamine): ≤ 4 h
treatment time for the dopamine effect on aSynL:total ratio to become detectable in the total RNA population (aSynL:total ratio [4]; SH-SY5Y, dopamine): at least 16 hrs
increase in aSynL:total ratio in nascent RNA (aSynL:total ratio [4]; dopamine 100 μM with EU for 4 h, captured EU-labeled RNA): robustly observed
increase in aSynL:total ratio in total RNA (aSynL:total ratio [4]; dopamine 100 μM with EU for 4 h, total RNA): not in total RNA
aSynL:total ratio in total RNA (aSynL:total ratio [3]; SH-SY5Y, dopamine 100 μM, 24 h, no actinomycin D): increase
aSynL:total ratio (ratio of in situ hybridization signals) (aSynL:total ratio [5]): increase
endogenous aSyn protein levels (ELISA, normalized to total protein) (aSyn protein [6]): significantly increased
dopamine-mediated increase in luciferase accumulation under VMAT2 overexpression (human aSyn 3′UTR; dopamine 100 μM for 48 h): suppressed
dopamine-mediated increase in luciferase accumulation under VMAT2 overexpression (human aSyn 3′UTR; dopamine 100 μM for 48 h, listed as Dopamine): cancelled
luciferase expression, Firefly/Renilla ratio, 1.1 kb human aSyn 3′UTR vector (human aSyn 3′UTR; SH-SY5Y, 100 μM for 24 h): increased
luciferase expression, Firefly/Renilla ratio, short aSyn 3′UTR vector (human aSyn 3′UTR; SH-SY5Y): not observed
luciferase expression, Firefly/Renilla ratio, short aSyn 3′UTR vector (human aSyn 3′UTR; SH-SY5Y, listed as Dopamine): do not influence
aSyn 3′UTR mediated translation (luciferase) (human aSyn 3′UTR; SH-SY5Y, vector control, dopamine 100 μM for 48 h): potentiates
aSyn translation: endogenous aSyn protein (ELISA) normalized to total aSyn mRNA (aSyn translation): significant increase
aSyn content within total cell membrane fraction relative to whole cell lysate (ELISA) (aSyn protein [7]): decreased; also recorded: reduction
aSyn protein content in mitochondrial preparations relative to whole cell aSyn content (ELISA) (aSyn protein [7]): increased proportion; also recorded: preferentially increased
fraction of aSyn protein that colocalized with mitochondria (Mitotracker) (aSyn protein [8]): significantly increased
aSynL (1070 nt 3′UTR) transcript relative to shorter (300 nt 3′UTR) transcript, Northern blot (aSynL:total ratio [9]): increase

C=C(C)[C@H]1CN[C@H](C(=O)O)[C@H]1CC(=O)O [kainic acid]
aSynL:total ratio (aSynL:total ratio [2]; [10]): did not appear to impact

— patent US20140323581A1, “TRANSCRIPTOME WIRING ANALYSIS IN PARKINSON'S DISEASE AND USES THEREOF” (THE TRUSTEES OF COLUMBIA UNIVERSITY IN THE CITY OF NEW YORK, priority 2011, published 2014)
